Tests used:
perennial ryegrass = assay: Example 21 Fe chelates with Killex, perennial ryegrass; type: in vivo; settings: A29 = 29 days after treatment
Procedure: (§1) Plants were fertilized with an all purpose water-soluble fertilizer mix of 20-20-20 (N-P-K; Plant-Prod®) as needed. All broadleaf weeds were grown individually in a 2¼-inch pot until they were a suitable size for herbicide tests (actual weed size is reported in examples below). Perennial ryegrass was also grown in 2¼-inch pots, however many grass seeds were sown in the pot to simulate a small section of turf. Grass plants were continually trimmed to a height of 4 cm, simulating that of a homeowner's lawn. For field tests, plots ¼ m^2 in size were marked out in areas containing the targeted broadleaf weed species growing in turf grass. Plots were continually mowed to simulate a homeowner's lawn. […] In all of the examples, the amounts of the various herbicide components are identified as a percent on a weight basis.
(§2) Killex® (Scotts Canada, Ltd., Ontario, Canada) is a commonly used selective lawn herbicide and was used as the commercial herbicide for herbicide combinations. The labeled dilution and application rates for Killex® are 6 ml into 1 L of solution (0.6%) applied at 200 ml/m^2.
(§3) All visual plant damage assessments were made using a quantitative rating scale; percent control relative to the untreated check (0=no effect; 100=plant death).
Materials and Methods: This trial was conducted in the greenhouse. […] Phytotoxicity (%) was assessed 29 days after treatment (A29).

[1] = system: dandelion (Taraxacum officinale); assay: Example 11 field test, dandelion in lawn; type: in vivo
Procedure: (§4) Killex® (Green Cross, Ontario, Canada) is a commonly used selective lawn herbicide and was included in several field tests as a standard. Killex contains 2,4-D (9.5%), mecoprop (5%) and dicamba (0.9%). The product was diluted 6 ml into 1 L of water solution and applied at rate of 200 ml/m^2, as per label instructions.
This test investigated the effect of FeHEDTA and a mixture of FeEDDS and FeMGDA on daisy (Bellis perennis), dandelion (Taraxacum officinale) and a turf bentgrass (Agrostis sp.). The chelating agents were used at one and a half times the molar amount of iron. The FeHEDTA solutions contained 0.2% iron (35.8 mM). The commercially prepared FeHEDTA product from the Monterey Chemical Company (CA, USA) was used as a standard. The (FeEDDS+FeMGDA) solutions contained 0.4% iron (71.6 mM) and the same molar amount of EDDS and MGDA. The solutions were made from NaEDDS (Octaquest E30, Octel) and NaMGDA (Trilon M liquid, BASF, Germany). Ammonium sulfate was added at a concentration of 1%. Killex (Solaris ON, Canada) was diluted and applied as per label instructions of 6 ml/L applied at 200 ml/m^2.
The daisy (0.25 m^2) and dandelion (0.5 m^2) test plots were in different areas of the bentgrass field. The dandelions were large, averaging 30 cm in diameter. The daisy patches were between 10 and 20 cm in diameter. The plants were sprayed weekly 4 times.

dandelion = assay: Example 14 field dandelion test of iron chelates and 50:50 mixtures; type: in vivo, Taraxacum officinale; parameters: Surviving Dandelions (%): concentration or dose not given beside the values
Source text: Solutions were made of FeHEDTA (0.2% Fe), FeEDTA (0.2% Fe), FeEDDS (0.4% Fe), and FeMGDA (0.4% Fe). For the combinations, these 4 solutions were mixed together in a 1:1 ratio. The plots (0.25 m^2) were sprayed 3 times at weekly intervals at a rate of 0.1 L/m^2. The plots contained a mixture of dandelion and hard fescue turfgrass.

grass = assay: Example 13 field test, grass; type: in vivo
Procedure: as §4
This test evaluated FeEDDS (0.4% Fe^+3) and FeHEDTA (0.2% Fe^+3) for controlling the weed hairy cat's ear (Hypochoeris radicata), also known as “false dandelion”, grown in areas of mixed grass and Hypochoeris. The iron solutions were sprayed at a rate of 100 ml/m^2 to 1.0 m^2 plots. The iron treatments were resprayed after 7 and 14 days. Killex (Solaris ON, Canada) was diluted and applied once as per label instructions of 6 ml /L applied at 200 ml/m^2.

white clover = assay: Example 18 FeHEDTA with Killex, white clover; type: in vivo
Procedure: as §1, §2, §3
Materials and Methods: This trial was conducted in the greenhouse. Nine pots of white clover and 10 pots of perennial ryegrass were selected for each treatment. Herbicide solutions were prepared using deionized water. The treatments were applied using a hand-trigger sprayer at 200 ml/m^2. All treatments were applied once. Phytotoxicity (%) was assessed 4, 7, and 14 days after application (A4, A7, and A14).

With `O=C([O-])CN(CCO)CCN(CC(=O)[O-])CC(=O)[O-].[Fe+3]` [FeHEDTA] the “Phytotoxicity (%) on perennial ryegrass” value (perennial ryegrass) was 0%, the “Plot Area Covered by Dandelion Plants (%)” value (“Plot Area Covered … (%)” below) ([1]; day 0 (start of test)) was 80% and the “Dandelion Necrosis (%)” value ([1]; day 2) was 95%. For the same molecule, the “Dandelion Necrosis (%)” value ([1]; day 9) was 98%, the “Plot Area Covered … (%)” value ([1]; day 13, sprayed weekly 4 times) was 5% and the “Dandelion Necrosis (%)” value ([1]; day 16) was 97%. The “Plot Area Covered … (%)” value ([1]; day 21) was 10%, the “Dandelion Necrosis (%)” value ([1]; day 23) was 97% and the “Plot Area Covered … (%)” value ([1]; day 26) was 8%. The “Area Covered by Dandelion (%)” value (dandelion; day 0) was 40%, the “Dandelion Count (#/0.25 m^2)” value (dandelion; day 0) was 63 #/0.25 m^2 and the “Dandelion Count (#/0.25 m^2)” value (dandelion; day 6) was 60 #/0.25 m^2. For the same molecule, the “Surviving Dandelions (%)” value (dandelion; day 6) was 95%, the “Area Covered by Dandelion (%)” value (dandelion; day 6, sprayed 3 times at weekly intervals) was 20% and the “Dandelion Necrosis (%)” value (dandelion; day 11) was 95%. The “Dandelion Count (#/0.25 m^2)” value (dandelion; day 13) was 40 #/0.25 m^2, the “Surviving Dandelions (%)” value (dandelion; day 13) was 63% and the “Area Covered by Dandelion (%)” value (dandelion; day 15) was 8%. For the same molecule, the “Dandelion Necrosis (%)” value (dandelion; day 18) was 97%, the “Area Covered by Dandelion (%)” value (dandelion; day 21) was 2% and the “Dandelion Count (#/0.25 m^2)” value (dandelion; day 21) was 26 #/0.25 m^2. The “Surviving Dandelions (%)” value (dandelion; day 21) was 41%, the “Dandelion Necrosis (%)” value (dandelion; day 33) was 97% and the “Area Covered by Hairy Grass (%)” value (grass; day 0) was 15%. For the same molecule, the “Relative Grass Area (Start = 100%)” value (grass; day 0) was 100%, the “Area Covered by Hairy Grass (%)” value (grass; day 6) was 47% and the “Relative Grass Area (Start = 100%)” value (grass; day 6) was 313%. For the same molecule, the “Area Covered by Hairy Grass (%)” value (grass; day 8) was 40%, the “Relative Grass Area (Start = 100%)” value (grass; day 8) was 267% and the “Area Covered by Hairy Grass (%)” value (grass; day 15) was 50%. For the same molecule, the “Relative Grass Area (Start = 100%)” value (grass; day 15) was 333%, the “Area Covered by Hairy Grass (%)” value (grass; day 18) was 46% and the “Relative Grass Area (Start = 100%)” value (grass; day 18) was 307%. For the same molecule, the “Phytotoxicity (%) against white clover” value (white clover; A4) was 27%, the “Phytotoxicity (%) against white clover” value (white clover; A7) was 50% and the “Phytotoxicity (%) against white clover” value (white clover; A14) was 18%.

— patent US20100273656A1, “COMPOSITION AND METHOD FOR SELECTIVE HERBICIDE” (priority 2002, published 2010)
